Laboratory results: patent US20160193148A1, “LIPOSOMAL FORMULATIONS FOR THE TREATMENT OF BACTERIAL INFECTIONS” (UNIVERSITY OF GEORGIA RESEARCH FOUNDATION, INC., priority 2013, published 2016)
Marks after values point to notes of the source that are not given here.

Legend:
[1] = Repeated dose IV LG or FG: indices of renal injury and tolerability in foals
Protocol: Subsequently, twelve healthy foals were administered either LG or FG at 6.6 mg/kg IV q 24 hours for 7 doses, and urinary protein, creatinine, γ-glutamyltransferase, and electrolytes were measured on days 0, 3 and 7 to quantify renal injury. Concentrations of gentamicin were measured using HPLC-MS.
(§1) Each dose was diluted in 250 ml of sterile 0.9% saline and administered over 15 minutes via an indwelling 14 G catheter placed in a jugular vein. Blood samples for plasma separation and measurement of gentamicin concentrations were obtained on day 1 and on day 7 at the times listed for study 1. Bronchoalveolar lavage fluid was collected 2, 6 and 24 hours after the end of infusion on day 7. Urine was collected the day prior to the first drug dose (day 0) and again 2 hours after the end of the infusion on days 3 and 7. Foals were sedated with xylazine hydrochloride (1.1 mg/kg bwt IV) and anesthetized with ketamine (2.2 mg/kg bwt IV) to allow passage of a urinary catheter using aseptic techniques. Urinalysis was performed and urine and concurrently obtained plasma samples were submitted for measurement of creatinine, γ-glutamyltransferase (GGT), protein, calcium, chloride, magnesium, sodium, and potassium concentrations. Fractional excretion of electrolytes, urinary GGT to creatinine ratio, and urinary protein to creatinine ratios were calculated. Prior to analysis for gentamicin concentration by LC-MS, urine and plasma samples were centrifuged at 400×g for 10 minutes and the supernatant was frozen at −80° C. until assayed.
Normality and equality of variance of the data were assessed with use of the Shapiro-Wilk and Levene tests, respectively. Data that were not normally distributed were log or rank transformed. The paired t test or the Wilcoxon rank sum test was used to compare IV pharmacokinetic variables between LF and FG. The effects of drug (LG vs FG), administration route (IV vs nebulized) and the interactions between drug and administration route on PELF and BAL cell pharmacokinetic variables were assessed using a two-way ANOVA for repeated measurement. For study 2, the effects of drug (LG vs FG), time (day 0, day 3, and day 7), and the interactions between drug and time on renal indices were assessed using a two-way ANOVA with one factor repetition (time). When warranted, multiple pairwise comparisons were done by use of the Holm-Sidak test. The paired t test or the Wilcoxon rank sum test was used to compare IV pharmacokinetic variables obtained on day 1 to those obtained on day 7. Significance was set at P<0.05.

[2] = Repeated dose IV LG or FG: gentamicin in plasma, BAL cells and urine of foals
Protocol: as §1
A 10 mm diameter, 2.4 m BAL catheter^k was passed via nasal approach until wedged into a bronchus. The lavage solution consisted of 4 aliquots of 60 ml 0.9% saline solution infused and instantly aspirated. Immediately upon collection, the total volume of BAL fluid recovered was measured and a 3 ml aliquot saved in an EDTA tube from which total nucleated cell count was determined by use of a cell counter.^1 BAL fluid was immediately centrifuged at 400×g for 10 min. The BAL cells in the resultant pellet were washed, re-suspended in 500 μl of acetonitrile: 0.2% formic acid (1:1, v/v), vortexed, and frozen at −80° C. until assayed. Supernatant BAL fluid was also frozen at −80° C. until assayed. Before assaying, the cell pellet samples were thawed, vortexed vigorously and sonicated for 10 minutes to ensure complete cell lysis. The resulting suspension was centrifuged at 500×g for 10 minutes and the supernatant fluid was used to determine the intracellular concentrations of gentamicin.
Briefly, gentamicin was extracted from plasma (250 μl) and urine (500 μl) using protein precipitation with an equal volume of ice-cold 90:10 acetonitrile: 0.2% formic acid (v/v). Extracted samples were centrifuged (2° C. at 10,000×g for 10 min) twice. Two-hundred microliters of the supernatants were transferred to polypropylene inserts for injection. The supernatant derived from the lyzed BAL cell pellet was transferred to polypropylene inserts for direct injection without further processing. […] An aliquot of the resultant supernatant was then mixed with an equal volume of ice-cold acetonitrile, centrifuged (2° C. at 10,000×g for 10 minutes) and 200 μl was transferred to polypropylene inserts for injection. Calibration standards were prepared in drug-free foal plasma, BAL fluid or urine and then extracted as described above so that standard curves specific to each biologic matrix could be constructed. […] Analyte separation and LC-MS/MS measurement of gentamicin were performed exactly as described previously (Burton et al. (2013) Equine Vet J. 45, 507-511) except that BAL fluid samples, were introduced in the MS with a flow rate of 0.18 ml/minutes and a total run time of 8 minutes due to relatively low gentamicin concentration in those samples.
Estimation of the volume of PELF was determined by urea dilution method (Rennardet al. (1986) J. Appl. Physiol 60, 532-538).

[3] = repeated daily IV dosing, 6 foals per group
[4] = 6.6 mg/kg IV q 24 h, 7 doses, day 7

## gentamicin sulfate [Free Gentamicin]
[1]; Day 0 (before first dose)
  FE Ca^2+: 3.5 ± 3.4%
  FE Cl^−: 0.60 ± 0.29%
  FE K^+: 10.1 ± 4.9%
  FE Mg^2+: 13.9 ± 8.91%
  FE Na^+: 0.28 ± 0.4^a %
  Plasma creatinine: 116.39 ± 20.48 µmol/L
  USG (urine specific gravity): 1.003 ± 0.002
  Urine pH: 7.2 ± 0.7
[1]; Day 3
  FE Ca^2+: 1.9 ± 1.1%
  FE Cl^−: 0.6 ± 0.2%
  FE K^+: 18.4 ± 12.2%
  FE Mg^2+: 11.2 ± 6.5%
  FE Na^+: 0.12 ± 0.05^a %
  Plasma creatinine: 120.81 ± 21.41 µmol/L
  USG (urine specific gravity): 1.008 ± 0.008
  Urine pH: 6.3 ± 0.8
  difference from baseline (day 0) in urine pH: −0.83*
[1]; Day 7
  FE Ca^2+: 1.6 ± 1.4%
  FE Cl^−: 0.78 ± 0.19%
  FE K^+: 16.8 ± 10.6%
  FE Mg^2+: 9.8 ± 4.7%
  FE Na^+: 0.27 ± 0.12^b %
  Plasma creatinine: 117.87 ± 24.79 µmol/L
  USG (urine specific gravity): 1.002 ± 0.001
  Urine pH: 6.3 ± 0.3
  difference from baseline (day 0) in urine pH: −1.67*
[1]; day 7, 6 foals per group
  casts on urine sediment analysis: One foal
[1]; [3]
  mild self-limiting diarrhea during treatment: One foal
  thrombophlebitis: 2 foals
[2]; [4]
  AUC0-t in BAL cells: 104.8 ± 35.1 µg·h/mL
  Cmax in BAL cells: 6700 ± 1900 ng/mL
  Concentration in BAL cells at 24 hours: 3500 ± 1800 ng/mL
[2]; 6.6 mg/kg IV q 24 h, 7 doses, day 7, range 2-24 hours
  Tmax in BAL cells (median): 6 h
[2]; Day 3
  Urine gentamicin: 94.8 ± 47.5 µg/mL
[2]; Day 7
  Urine gentamicin: 87.5 ± 5 µg/mL
[2]; day 1 vs day 7 plasma pharmacokinetic variables
  accumulation in plasma over 1 week of daily administration: no accumulation
